Measurements as given in US20110269790A1, “NOVEL THIENOPYRIDINES AS PHARMACOLOGICALLY ACTIVE AGENTS” (priority 2009, published 2011).
Values after ≈ are worked out from the molar mass of the structure shown.

Key:
[1] = test system: Colo-205 (Colon cancer); test: MTT assay, Colo-205; format: cell-based; conditions: Homo sapiens, COLO 205; MTT, 48 hrs; read-out: Colo-205 IC50
Procedure: (§1) A431 (Skin cancer), Colo-205 (Colon cancer), A549 (Lung cancer) cell lines were obtained from National Center for Cell science (NCCS), Pune, India. DMEM (Dulbeccos Modified Eagles Medium), MTT [3-(4,5-dimethylthiazol-2-yl)-2,5-diphenyl tetrazolium bromide], Trypsin, EDTA were purchased from Sigma Chemicals Co (St. Louis, Mo.), Fetal bovine serum were purchased from Arrow labs, 96 well flat bottom tissue culture plates were purchased from Tarson.
(§2) A431, Colo-205, A549 cell lines were grown as adherent cells in DMEM media supplemented with 10% fetal bovine serum, 100 μg/ml penicillin, 200 μg/ml streptomycin, 2 mM L-glutamine, and culture was maintained in a humidified atmosphere with 5% CO2. Stock solution of 10 mg/ml was prepared for test molecules in DMSO. From the stock, various dilutions were made with sterile water to get required concentration. A431, Colo-205, A549 cell lines were seeded at a density of 1×10^4 cells (cell number was determined by Trypan blue exclusion dye method) per each well in 100 μl of DMEM supplemented with 10% FBS. 12 hrs after seeding, above media was replaced with fresh DMEM supplemented with 10% FBS. Then, 10 μl sample from above stock solutions were added to each well in triplicates which gives final concentration of 100, 50, 25, 10 μg/well. The above cells were incubated for 48 hrs at 37° C. with 5% CO2. After 48 hrs incubation the above media was replaced with 100 μl of fresh DMEM with out FBS and to this 10 μl of MTT (5 mg dissolved in 1 ml of PBS) was added and incubated for 3 hrs at 37° C. with 5% CO2. After 3 hrs of incubation, the above media was removed with multi channel pipette, then 200 μl of DMSO was added to each well and incubated at 37° C. for 15 min. Finally, the plate was read at 570 nm using spectrophotometer (Spectra Max, Molecular devices).

[2] = test system: Wistar rats; test: Carrageenan induced paw edema model; format: in vivo, rat; conditions: Rattus norvegicus, test compounds 100 mg/kg oral, Indomethacin 10 mg/kg oral, 3 hrs after Carrageenan
Procedure: Male Albino Wistar rats of 150-180 grams were used for the experiments.
Anti-inflammatory activity of test compounds was evaluated in Wistar rats employing the method of Winter et al (1963) and Diwan et al (1989). Male Wistar rats were used for the study. […] The different test compounds were administered to the animals in the test group at the dose of 100 mg/kg, by oral route. Animals in the standard group received Indomethacin at the dose of 10 mg/kg, by oral route. All test and standard compounds were administered as 1% gum acacia suspension. Rats in the control group received the vehicle solution without drugs. One hour after test drugs administration, rats in all the groups were challenged with 0.1 ml of 1% Carrageenan in the sub plantar region of right hind paw. A zero hour paw volume was measured for all the rats using digital plethysmometer (Ugo Basile, Italy) before the administration of carrageenan for all groups. Paw volumes were again measured 3 hrs after the challenge of Carrageenan. The percent inhibition of paw volume for each rat in treated groups was calculated by comparing with mean paw volume of control group and expressed as mean (±SE) percent inhibition of paw volume for each test. In a preliminary study the compounds that have shown good activity were evaluated for dose response study by using above procedure.

[3] = test system: A431 (Skin cancer) cell lines; test: MTT assay, A431; format: cell-based; conditions: Homo sapiens, A-431; MTT, 48 hrs; read-out: A431 cell lines IC50
Procedure: as §1, §2

[4] = test system: mice; test: Adenosine mediated bronchoconstriction and lung inflammation in an allergic mouse model; format: in vivo; parameters: Total count: unit not given here; conditions: BAL fluid cells; 100 mg/kg oral
Procedure: Thienopyridines were proven as potent cytotoxic and anti-inflammatory agents in the previous experimental results. In cytotoxic MTT assay, activity of these molecules may be due to the involvement of adenosine receptors. Further, to find the bronchodilatory activity of these moieties and to find the involvement of adenosine receptors in their action, non-invasive and invasive adenosine mediated bronchoconstriction and lung inflammation in an allergic mouse model was performed.
Male mice, 6-8 weeks of age, free of specific pathogens were obtained from National Institute of Nutrition. The animals were maintained on a ragweed-free diet. All experimental protocols used in this study were under a protocol approved by animal ethical committee. Sensitization was performed according to the modified procedure described by Fan et al, 2002. Mice were sensitized on days 1 and 6 with i.p. injections of ragweed allergen (200 μg/200 μl of water for injection). Non-sensitized control animals received only water for injection with the same volumes. Ten days after sensitization, the mice were placed in plexiglas chamber and challenged with 0.5% ragweed or with 0.9% saline as a control for twenty minutes both in the morning and evening for three days. Then mice were divided into different groups consisting of six animals each. The groups including a control without sensitization; a sensitized group and a standard group along with groups of the test molecules were separated. Twenty-four hours after last challenge with ragweed, the mice were given an oral dose of test molecules and theophylline (100 mg/kg body weight) as acacia suspension. Two hours after administration of the oral dose, the mice were challenged with adenosine solution (24 mg/ml). The variation in respiration was recorded after anaesthetizing them with pentobarbitone sodium (0.1 ml 200 mg/ml ip) using kymograph. Then, mice were sacrificed and trachea was cannulated to collect the bronchoalveolar lavage fluid. This was performed by pumping 1 ml phosphate buffered saline into lungs through tracheal cannula and collecting the sample. Analysis of BAL fluid was performed to get the cellular differentials. The BAL fluid was centrifugated at 1500 rpm for six minutes at room temparature. After removing the supernatant, BAL cells were resuspended in 1 ml of phosphate buffered saline. Total cells were then counted manually in a hemocytometer chamber. A differential count of at least 300 cells was made according to the standard morphologic criteria and results were mentioned in table.

[5] = test system: A549 (Lung cancer); test: MTT assay, A549; format: cell-based; conditions: Homo sapiens, A549; MTT, 48 hrs; read-out: A549 IC50
Procedure: as §1, §2

[6] = test system: crude intestinal α-glucosidase; test: In-vitro mammalian (rat intestinal) α-glucosidase inhibition assay; format: biochemical
Excerpt: Chemicals: α-Glucosidase [(EC 3.2.1.20) Type I: from bakers yeast], rat intestinal acetone powder (as a source of crude intestinal α-glucosidase), α-amylase [EC 3.2.1.1) Type VI B: from porcine pancreas], p-nitrophenyl α-D-glucopyranoside, 3,5-dinitro salicylic acid, soluble potato starch and 1-deoxyrojirimycine, were purchased from Sigma Chemical Co., St Louis, Mo., USA. Other chemicals of analytical grade were procured from indigenous manufacturers.
In-vitro a-Glucosidase Inhibition Assay: Yeast and intestinal a-glucosidase inhibitory activities were determined as per reported methods (Babu et al., 2004; Mc Dougall et al., 2005). Rat intestinal acetone powder in normal saline (100% w/v) was sonicated properly and the supernatant was used as a source of crude intestinal a-glucosidase after centrifugation. In brief, 20 μl, of test samples (100 mg/ml DMSO solution) were reconstituted in 100 μl of 100 mM-Phosphate buffer (pH 6.8) in a 96-well microplate and incubated with 50 μl yeast a-glucosidase (0.76 μ/ml in same buffer) or crude intestinal a-glucosidase for 5 min before 50-μl substrate (5 mM, […] prepared in same buffer) was added. Release of p-nitrophenyol was measured at 405 nm spectrophotometrically (Spectra Mas Plus 384, Molecular Device corporation, Sunnyvale, Calif., USA) 5 min after incubation with substrate, individual blank for test samples were prepared to correct background absorbance where the substrate was replaced with 50 μl of buffer. The control sample contained 20 μl DMSO in place of test samples. The percentage of enzyme inhibition was calculated as (A−B/A)×100 where A is represents the absorbance of the control without test samples, and B represents the absorbance in the presence of test samples. […] The IC50 values were calculated by applying logarithmic regression analysis from the mean inhibitory values.

IC50 [1]: 100 µg/mL (≈ 406 µM) | melting point: 220 °C | IC50 [3]: 33.8 µg/mL (≈ 137 µM) | IC50 [5]: 43.6 µg/mL (≈ 177 µM) | Mammalian α-glucosidase inhibitory activity (in words) [6]: moderate inhibitory activity | Mammalian α Glucosidase Inhibition (Mean ± S.E) ([6]; highest concentration 5 mg/ml): 46.07 ± 0.9%
SMILES: Cc1sc2nc3c(c(N)c2c1C)CCC(C)C3 (stereo not drawn) [BN-3, 2,3,7-Trimethyl-5,6,7,8-tetrahydrothieno[2,3-b]quinolin-4-amine]
change in vivo at 100 mg/kg ([2]; read-out: % Increase in Paw Volume): 81.4 ± 21% | inhibition in vivo at 100 mg/kg ([2]; read-out: % Inhibition (paw volume)): 23.2 ± 5.15% | Differential count (%) Eosinophils [4]: 14% | Differential count (%) Lymphocytes [4]: 75% | Differential count (%) Monocytes [4]: 15% | Total count [4]: 14.5
